Like-named read-outs stand apart in the source and are kept apart here.
Tests used:
[1] = test system: IL-6; test: A549 Cell Assay to Measure Inflammation Markers (inhibition of IL-1β-induced IL-6); format: cell-based; conditions: A549 cells, read-out: A549 cell assay
Experimental: A549 Cell Assay to Measure Inflammation Markers
A549 cells were seeded (3E4 cells/well) in 96-well assay plates in culture medium (100 μL/well., F-12 K base media, supplemented with 10% FBS and 100 μ/mL-100 μg/mL Pen-Strep.) After overnight culture in an incubator set to 37° C., 4.9% CO2, and 90% humidity, media was removed from adherent cells by aspiration and replaced with 100 μL/well Assay Medium (F-12 K base media supplemented with 5% charcoal stripped calf sera and 100 U/mL-100 μg/mL Pen-Strep.) Compounds were prepared in DMSO and serial diluted (1:3, 1:4, or 1:5) with DMSO in Dilution Plate(s) to give 10 dilution points for each compound tested. Further dilution (1:250) of compound was made into assay medium and 50 μL/well diluted drug or DMSO/media control was applied to cells. After a 1 h pre-incubation in a temperature, CO2, and humidity controlled incubator, set to 37° C., 50 μL/well of 4 ng/mL IL-1β diluted in assay media, was applied to cultures. Assay plates, with a final volume of 200 μL/well and final concentrations of 0.1% DMSO and 1 ng/mL IL-1β were returned to incubator for a four h incubation period. Next, plates were spun at 183 g (1000 rpm in Beckman/Coulter Allegra 6KR centrifuge) for 10 min. Cell-free supernatant (150 μL/well) was collected and IL-6 was measured by MSD kit, following protocol of manufacturer, and using MSD SECTOR Imager 6000 instrument. Potency of compounds to inhibit IL-6 was determined using the percent reduction of measured IL-6 in wells with compound compared to control wells without drug, and relative to (100% inhibition) positive control compound of 1 μM prednisolone. Results were represented as IC50 and Emax values. To verify that viable cell numbers were similar across plate(s), and not confounding compound IC50 data interpretation, the remaining 50 μL/well of cells and media (after removal of supernatant) were used to run Cell Titer-Glo Assay per directions of manufacturer.

[2] = biological target: T1, Glucocorticoid Receptor (GR) (Homo sapiens, UniProt P04150); test: GR Fluorescence Polarization Assay (PolarScreen Glucocorticoid Receptor Competitor Assay, Red); conditions: fluorescence polarization binding ranges
T1 construct: purchased Invitrogen P2893
T1 sequence (P04150 1-777): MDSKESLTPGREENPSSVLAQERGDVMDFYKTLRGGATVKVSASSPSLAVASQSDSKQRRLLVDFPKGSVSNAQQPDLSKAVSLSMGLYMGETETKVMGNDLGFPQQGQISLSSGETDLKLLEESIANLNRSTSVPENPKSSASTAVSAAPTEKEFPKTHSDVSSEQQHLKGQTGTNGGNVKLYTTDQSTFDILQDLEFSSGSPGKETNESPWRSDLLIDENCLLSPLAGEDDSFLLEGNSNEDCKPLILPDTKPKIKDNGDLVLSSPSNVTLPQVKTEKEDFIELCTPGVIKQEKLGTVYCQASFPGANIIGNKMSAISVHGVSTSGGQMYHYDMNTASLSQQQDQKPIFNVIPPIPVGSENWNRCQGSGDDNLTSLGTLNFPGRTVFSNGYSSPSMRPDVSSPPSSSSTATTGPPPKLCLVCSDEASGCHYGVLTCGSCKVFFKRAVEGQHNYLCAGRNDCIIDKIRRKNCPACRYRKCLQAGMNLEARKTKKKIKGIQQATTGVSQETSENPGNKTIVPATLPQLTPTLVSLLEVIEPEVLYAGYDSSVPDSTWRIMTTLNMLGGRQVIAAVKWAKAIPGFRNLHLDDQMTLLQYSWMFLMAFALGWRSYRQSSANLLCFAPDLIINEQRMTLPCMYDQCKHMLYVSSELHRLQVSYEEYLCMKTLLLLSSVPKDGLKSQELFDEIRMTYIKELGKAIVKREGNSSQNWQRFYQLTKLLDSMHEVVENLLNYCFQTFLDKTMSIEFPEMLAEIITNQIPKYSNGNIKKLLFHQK
Experimental: Fluorescence polarization assays were carried out using the PolarScreen™ Glucocorticoid Receptor Competitor Assay, Red from Invitrogen (P2893). The assay buffer was prepared according to the manufacturer's protocol and used to dilute the fluorescent glucocorticoid and GR. Compounds were prepared and serial diluted 1:4 in DMSO. Compound, fluorescent glucocorticoid and GR were added in a final volume of 20 μL and incubated overnight at 4° C. Fluorescent polarization was measured on the PerkinElmer Envision®. Fluorescence polarization binding ranges measured using GR Fluorescence Polarization Assay: […]

Row | IC50 [1] | IC50 [2] | IC50 ([1]; Homo sapiens) | SMILES
1 | < 100 nM | < 100 nM |  | CC[C@@]12CC[C@](O)(COC)C[C@@H]1CCCc1cc3c(cnn3-c3ccnc(C)c3)cc12 (racemic) [Example 45]
2 |  | < 100 nM | < 100 nM | OC[C@@]12CC[C@](O)(C(F)(F)F)C[C@H]1CCCc1cc3c(cnn3-c3ccc(F)cc3)cc12 (racemic) [Example 80]
3 |  | < 100 nM | < 100 nM | CC[C@@]12CC(=O)[C@](C)(O)C[C@@H]1CCCc1cc3c(cnn3-c3ccc(F)cc3)cc12 (racemic) [Example 100, rac-(3R,4aS,12bR)-12b-Ethyl-9-(4-fluorophenyl)-3-hydroxy-3-methyl-1,3,4,4a,5,6,7,12b-octahydrobenzo[6,7]cyclohepta[1,2-f]indazol-2(9H)-one]
4 | < 100 nM | < 100 nM |  | CC[C@@]12CC[C@](O)(COC)C[C@@H]1CCOc1cc3c(cnn3-c3ccc(F)cc3)cc12 (racemic) [Example 129]
5 |  | < 100 nM | < 100 nM | CC[C@@]12CC[C@](O)(COC)C[C@@H]1CCOc1cc3c(cnn3-c3ccncc3)cc12 (racemic) [Example 132]
6 |  | 100 to 1000 nM |  | CC[C@@]12CC[C@](O)(COC)C[C@@H]1CCOc1cc3c(cnn3-c3nnc(C)s3)cc12 (racemic) [Example 139]
7 |  | < 100 nM | < 100 nM | C[C@@]1(O)CC[C@@]2(Cc3ccccn3)c3cc4cnn(-c5ccc(F)cc5)c4nc3CCC[C@H]2C1 (racemic) [Example 148, rac-(3R,4aS,12bS)-9-(4-Fluorophenyl)-3-methyl-12b-(pyridin-2-ylmethyl)-1,2,3,4,4a,5,6,7,9,12b-decahydrobenzo[3,4]cyclohepta[1,2-b]pyrazolo[4,3-e]pyridin-3-ol]
8 |  | 1000 to 10000 nM | 100 to 1000 nM | CC[C@]12CC[C@](O)(C(F)(F)F)C[C@@H]1CCCc1nc3c(cnn3-c3ccc(F)cc3)cc12 (racemic) [Example 151, rac-(3R,4aS,12bS)-12b-Ethyl-9-(4-fluorophenyl)-3-(trifluoromethyl)-1,2,3,4,4a,5,6,7,9,12b-decahydrobenzo[3,4]cyclohepta[1,2-b]pyrazolo[4,3-e]pyridin-3-ol]
9 |  | < 100 nM | < 100 nM | CC[C@@]12CC[C@](O)(C(F)(F)F)C[C@H]1CCCc1nc3c(cnn3-c3ccc(F)cc3)cc12 (racemic) [Example 152, rac-(3R,4aR,12bR)-12b-ethyl-9-(4-fluorophenyl)-3-(trifluoromethyl)-1,2,3,4,4a,5,6,7,9,12b-decahydrobenzo[3,4]cyclohepta[1,2-b]pyrazolo[4,3-e]pyridin-3-ol]
10 |  | 100 to 1000 nM | > 10000 nM | O[C@@]1(C(F)(F)F)CC[C@@]2(Cc3ccccn3)c3cc4cnn(-c5ccc(F)cc5)c4nc3CCC[C@H]2C1 (racemic) [Example 155, rac-(3R,4aR,12bR)-9-(4-Fluorophenyl)-12b-(pyridin-2-ylmethyl)-3-(trifluoromethyl)-1,2,3,4,4a,5,6,7,9,12b-decahydrobenzo[3,4]cyclohepta[1,2-b]pyrazolo[4,3-e]pyridin-3-ol]
11 |  | < 100 nM | < 100 nM | O[C@]1(C(F)(F)F)CC[C@@]2(Cc3ccccn3)c3cn4cnc(-c5ccc(F)cc5)c4cc3CCC[C@@H]2C1 (racemic) [Example 166, rac-(3R,4aR,13bS)-9-(4-fluorophenyl)-13b-(pyridin-2-ylmethyl)-3-(trifluoromethyl)-2,3,4,4a,5,6,7,13b-octahydro-1H-benzo[3,4]cyclohepta[1,2-d]imidazo[1,5-a]pyridin-3-ol]
12 |  | < 100 nM | < 100 nM | COC[C@@]1(O)CC[C@@]2(Cc3ccccn3)c3cn4cnc(-c5ccc(F)cc5)c4cc3CCC[C@H]2C1 (racemic) [Example 167, rac-(3R,4aS,13bS)-9-(4-Fluorophenyl)-3-(methoxymethyl)-13b-(pyridin-2-ylmethyl)-2,3,4,4a,5,6,7,13b-octahydro-1H-benzo[3,4]cyclohepta[1,2-d]imidazo[1,5-a]pyridin-3-ol]
13 |  | < 100 nM | < 100 nM | CC[C@]12CC[C@](O)(C(F)(F)F)C[C@H]1CCCc1cc3c(cnn3-c3ccc(F)cc3)cc12 (single isomer, unassigned) [Example 2]
14 |  | 100 to 1000 nM | 100 to 1000 nM | CCC[C@@]1(O)CC[C@]2(CC)c3cc4cnn(-c5ccc(F)cc5)c4cc3CCC[C@H]2C1 (single isomer, unassigned) [Example 6]
15 |  | 100 to 1000 nM | > 10000 nM | CC[C@]12CC[C@](O)(COC)C[C@@H]1CCCc1cc3c(cnn3-c3ccc(F)cc3)cc12 (single isomer, unassigned) [Example 8]
16 |  | 100 to 1000 nM |  | O=C(NC1CC1)[C@@]12CC[C@](O)(C(F)(F)F)C[C@H]1CCCc1cc3c(cnn3-c3ccc(F)cc3)cc12 (single isomer, unassigned) [Example 86]
17 |  | 100 to 1000 nM |  | CC[C@]12CC[C@@](O)(COC)C[C@H]1CCOc1cc3c(cnn3-c3ccnc(C)c3)cc12 (single isomer, unassigned) [Example 127]
18 |  | 100 to 1000 nM |  | C[C@]1(O)CC[C@]2(Cc3ccccn3)c3cc4cnn(-c5ccc(F)cc5)c4nc3CCC[C@@H]2C1 (single isomer, unassigned) [Example 150]
19 |  | 100 to 1000 nM |  | Cc1cc(-n2ncc3cc4c(cc32)CCC[C@@H]2C[C@@](C)(O)CC[C@]42Cc2ccccn2)ccn1 [Example 61]
20 | < 100 nM |  |  | Cc1cc(-n2ncc3cc4c(cc32)CCC[C@H]2C[C@@](O)(CC#N)CC[C@@]42Cc2ccccn2)ccn1 [Example 70]
21 |  | 100 to 1000 nM |  | CC[C@]12CC[C@@](OP(=O)(O)O)(C(F)(F)F)C[C@@H]1CCCc1cc3c(cnn3-c3ccc(F)cc3)cc12 [Example 101, (3S,4aS,12bS)-12b-Ethyl-9-(4-fluorophenyl)-3-(trifluoromethyl)-1,2,3,4,4a,5,6,7,9,12b-decahydrobenzo[6,7]cyclohepta[1,2-f]indazol-3-yl dihydrogen phosphate]
22 |  | 1000 to 10000 nM |  | CC[C@]12CC[C@@](O)(COC)C[C@H]1CCOc1cc3c(cnn3-c3ccnc(OC)c3)cc12 [Example 137]
23 |  | 100 to 1000 nM |  | CC[C@]12CC[C@@](O)(COC)C[C@H]1CCOc1cc3c(cnn3-c3ccnc(C(F)(F)F)c3)cc12 [Example 140]
24 |  | 100 to 1000 nM |  | CC[C@]12CC[C@](C)(O)C[C@H]1CCOc1cc3c(cnn3-c3ccnc(C)c3)cc12 [Example 142]
25 |  | 100 to 1000 nM |  | CC[C@]12CC[C@@](O)(CC#N)C[C@H]1CCOc1cc3c(cnn3-c3ccnc(C)c3)cc12 [Example 144]
26 |  | 100 to 1000 nM |  | COC[C@]1(O)CC[C@]2(Cc3ccccn3)c3cc4cnn(-c5ccc(F)cc5)c4nc3CCC[C@H]2C1 [Example 157]
27 |  | 100 to 1000 nM |  | COC[C@]1(O)CC[C@]2(Cc3ncccn3)c3cc4cnn(-c5ccc(F)cc5)c4nc3CCC[C@@H]2C1 [Example 159]
28 |  | 100 to 1000 nM |  | C[C@@]1(O)CC[C@@]2(Cc3ncccn3)c3cc4cnn(-c5ccc(F)cc5)c4nc3CCC[C@H]2C1 [Example 161]
29 |  | 100 to 1000 nM |  | N#CC[C@]1(O)CC[C@]2(Cc3ccccn3)c3cc4cnn(-c5ccc(F)cc5)c4nc3CCC[C@@H]2C1 [Example 164]
30 |  | 100 to 1000 nM |  | CC[C@]12CC[C@@](OS(N)(=O)=O)(C(F)(F)F)C[C@@H]1CCCc1cc3c(cnn3-c3ccc(F)cc3)cc12 [Example 170, (3S,4aS,12bS)-12b-ethyl-9-(4-fluorophenyl)-3-(trifluoromethyl)-1,2,3,4,4a,5,6,7,9,12b-decahydrobenzo[6,7]cyclohepta[1,2-f]indazol-3-yl sulfamate]
